Earlier results as cited in patent US20080038318A1, “Composition; Use Of A Composition And A Method For Treating Obesity” (priority 2004, published 2008).

Test system: normal and obese volunteers
Conditions: in vivo

CCCCCCCCCCC[C@@H](C[C@@H]1OC(=O)[C@H]1CCCCCC)OC(=O)[C@H](CC(C)C)NC=O [orlistat]
reduction of the absorption of triacylglycerols: 30%
